Where “and” joins values, the source holds several entries; their conditions need not be identical. Identical values can stand only once. Entries after “also recorded” stand apart in the source; their conditions may differ. Like-named read-outs stand apart in the source and are kept apart here.
Key:
[1] = target: T1, PSMA (Homo sapiens, UniProt Q04609); assay: Equilibrium dissociation constant Kd / Bmax, saturation binding on PSMA-positive LNCaP cells; details: Scatchard plots
T1 construct: host or cells: LNCaP cells
Method: The equilibrium dissociation constant describing the interaction of the radiolabeled ligands with the PSMA binding sites was determined in PSMA-positive LNCaP cell lines (Cell Line Service, Eppelheim, Germany). LNCaP cells were seeded at a density of 10^6 cells/well on a 6-well plate (Corning, ME, USA) and incubated under 5% CO2 at 37 °C for 48 h with medium (minimum essential medium Eagle supplemented with 2 mM L-glutamine, 0.1 mM non-essential amino acids (NEAA), 1.0 mM sodium pyruvate, 10% fetal bovine serum, 100 U/ml penicillin, and 100 µg/ml streptomycin) (Lonza, Verviers, Belgium) in a humidified incubator (Thermo Heracell 150 CO2-Incubator, MA, USA). To determine the nonspecific binding, the medium was removed from selected wells, and 1 ml of a solution of 0.1 mM of 2-(phosphonomethyl)-pentanedioic acid (2-PMPA) in fresh medium was added. […] The plates were then incubated under 5% CO2, at 37 °C for 1 h. After that, the medium was removed and the cells incubated under the same incubation conditions for 3 h with different concentrations (0.25 nM, 2.5 nM, 5 nM, 10 nM, 25 nM, 50 nM, and 75 nM) of the radiotracer under investigation in 1 ml fresh medium.
After 3 h, the cells were washed three times with 1 ml PBS, and the cells were finally lysed by adding 1 ml of 1 M NaOH and incubating them for 10 min at room temperature. All samples were measured with a gamma counter (Nuklear Medizintechnik Dresden Isomed 100, Dresden, Germany) and were decay-corrected. The equilibrium dissociation constant (Kd) and the maximum density of receptors (Bmax) were calculated by non-linear regression using GraphPad Prism 8.0.2 (GraphPad Software, San Diego, USA).

[2] = test system: LNCaP cells; assay: Cellular uptake (specific cell binding) in LNCaP cells; assay type: cell-based; details: n=3
Method: (§1) The cell binding determined in these experiments is the sum of specific and nonspecific cell binding. To determine the values for nonspecific cell binding and internalization, all experiments were additionally performed in the presence of 2-PMPA.
(§2) The plates were incubated for 1 h; after which, 0.75 pmol of the radiotracer to be examined was added to 1 ml of fresh medium. The cells were incubated for 30 min, 1, 2, 3, and 5 h. At each time point, the supernatant was removed and the cells washed with 1 ml of PBS. To dissociate the receptor-bound radioligand, the cells were washed twice with 1 ml of a 0.1 M glycine buffer solution at pH 2.8 for 5 min. The 0.1 M glycine–HCl buffer dissociated all the surface-bound complexes. The cells were then washed with 1 ml of PBS, and the internalized fraction was determined by solubilizing the cells with 1 ml of 1 M NaOH and incubating them for 10 min at room temperature. The radioactivity collected from the culture medium, 0.1 M glycine (surface-bound), and 1 M NaOH (internalized fraction) was measured in a gamma counter and decay-corrected. Cell binding was calculated from the surface-bound (0.1 M glycine) and the internalized fraction (1 M NaOH). The internalized fraction was expressed as a percentage of cell binding (internalization to cell-bound radioactivity ratio). All cell uptake experiments were run in triplicate.

[3] = test system: LNCaP cells; assay: Internalization in LNCaP cells; assay type: cell-based; details: n=3
Method: as §1, §2

[4] = test system: prostate cancer relapse; assay: First-in-human PET/CT scan in a patient with biochemical recurrence of prostate cancer; details: for SUVmax left prostate lobe / SUVmax right prostate lobe: 93 MBq
Method: The patient had given their written informed consent for PET imaging and the scientific evaluation of their data. All procedures were performed in accordance with the Institutional Review Board and the regulations of the regional authorities in Cologne. The kidney dose was estimated on the basis of two PET scans. The following assumptions were made for the estimation: Between time 0 (injection) and the first measuring point, the time-activity-curve follows a constant progression. All measuring points were integrated numerically using trapezoidal approximation. From the last measuring point to infinity, a mono-exponential function was fitted and integrated. As the effective half-life could not be accurately determined from two measurement points, the physical half-life of Zr-89 was used instead.

[5] = test system: LNCaP tumor xenografts; details: for Tumor/blood ratio / Tumor/kidneys ratio / Tumor/liver ratio / Tumor/muscle ratio: LNCaP xenograft mice; for Biodistribution Blood / Biodistribution Bone / Biodistribution Heart / Biodistribution Intestine / Biodistribution Kidneys / Biodistribution LNCAP-tumor / Biodistribution Liver / Biodistribution Lung / Biodistribution Muscle / Biodistribution Prostate / Biodistribution Spleen / Biodistribution Thyroid: i.v. 30 pmol, n=5
[6] = test system: LNCaP tumor xenograft; assay: Small-animal PET in mice bearing an LNCaP tumor xenograft, with and without blocking by 2-PMPA

T1 sequence (Q04609 whole entry): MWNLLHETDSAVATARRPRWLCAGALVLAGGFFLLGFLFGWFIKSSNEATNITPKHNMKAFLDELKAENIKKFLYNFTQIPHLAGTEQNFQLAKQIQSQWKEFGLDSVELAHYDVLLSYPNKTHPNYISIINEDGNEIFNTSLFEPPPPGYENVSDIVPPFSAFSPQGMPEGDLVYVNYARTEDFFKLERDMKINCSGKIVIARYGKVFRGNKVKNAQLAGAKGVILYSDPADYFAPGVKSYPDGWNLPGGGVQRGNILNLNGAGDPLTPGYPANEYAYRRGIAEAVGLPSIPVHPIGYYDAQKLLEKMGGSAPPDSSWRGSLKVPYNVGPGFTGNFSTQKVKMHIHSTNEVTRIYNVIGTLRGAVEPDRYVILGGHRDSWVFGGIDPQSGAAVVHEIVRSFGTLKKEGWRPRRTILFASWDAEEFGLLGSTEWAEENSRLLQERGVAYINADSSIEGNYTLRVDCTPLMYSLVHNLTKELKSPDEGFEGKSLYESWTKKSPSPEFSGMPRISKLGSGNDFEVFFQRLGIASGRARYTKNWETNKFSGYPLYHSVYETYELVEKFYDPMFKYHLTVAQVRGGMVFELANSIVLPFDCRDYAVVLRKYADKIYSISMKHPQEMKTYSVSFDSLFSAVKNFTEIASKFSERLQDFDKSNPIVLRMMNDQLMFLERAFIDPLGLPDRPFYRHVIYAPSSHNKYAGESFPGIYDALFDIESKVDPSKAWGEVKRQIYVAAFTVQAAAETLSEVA

CC(=O)N1CCCCCNC(=O)CCC(=O)N2CCCCCNC(=O)CCC(=O)N(CCCCCNC(=O)CCC(=O)NCC3CCC(C(=O)NC(Cc4ccc5ccccc5c4)C(=O)NCCCCC(NC(=O)NC(CCC(=O)O)C(=O)O)C(=O)O)CC3)[O][89Zr+]([O]1)[O]2 (centres unmarked) [[^89Zr]Zr-PSMA-DFO, [^89Zr]Zr-N-sucDf-AMCHA-2Nal-EuK]
Bmax (maximum achievable concentration on 10^6 tumor cells) [1]: 1428 ± 42 fmol/10^6 cells | Specific binding in LNCaP cells as percentage of total activity ([2]; 0.5 h): 29.1±2.1% | Specific binding in LNCaP cells as percentage of total activity ([2]; 1 h): 38.5±2.3% | Specific binding in LNCaP cells as percentage of total activity ([2]; 2 h): 46.5±1.3% | Specific binding in LNCaP cells as percentage of total activity ([2]; 3 h): 48.8±1.0% | Specific binding in LNCaP cells as percentage of total activity ([2]; 5 h): 49.4±1.3% | Specific internalized activity as percentage of specific cell-bound activity ([3]; 0.5 h): 32.7±4.1% | Specific internalized activity as percentage of specific cell-bound activity ([3]; 1 h): 39.8±0.4% | Specific internalized activity as percentage of specific cell-bound activity ([3]; 2 h): 48.0±3.4% | Specific internalized activity as percentage of specific cell-bound activity ([3]; 3 h): 50.0±0.6% | Specific internalized activity as percentage of specific cell-bound activity ([3]; 5 h): 61.7±3.4% | Overall effective dose (ICRP 60) [4]: 0.11 mSv/MBq | SUVmax left prostate lobe ([4]; 48 h p.i.): 9.47 | SUVmax right prostate lobe ([4]; 48 h p.i.): 13.25 | SUVmax left prostate lobe ([4]; 72 h p.i.): 7.14 | SUVmax right prostate lobe ([4]; 72 h p.i.): 13.05 | Kidney dose ([4]; estimated from two PET scans): 2.8 mGy/MBq | Period over which the radioligand was found stable (37 °C, PBS and human serum, TLC, HPLC in PBS, listed as Zr-89-radioligand): 7 days | Radiochemical purity remaining on storage (storage in aqueous solution for 7 days): > 99% | Tumor/blood ratio ([5]; 2 h p.i.): 183 ± 42 | Tumor/kidneys ratio ([5]; 2 h p.i.): 0.31 ± 0.06 | Tumor/liver ratio ([5]; 2 h p.i.): 27.5 ± 3.2 | Tumor/muscle ratio ([5]; 2 h p.i.): 534 ± 62 | Biodistribution Blood ([5]; 2 h p.i.): 0.14 ± 0.02 %ID/g | Biodistribution Bone ([5]; 2 h p.i.): 0.15 ± 0.04 %ID/g | Biodistribution Heart ([5]; 2 h p.i.): 0.11 ± 0.05 %ID/g | Biodistribution Intestine ([5]; 2 h p.i.): 0.65 ± 0.15 %ID/g | Biodistribution Kidneys ([5]; 2 h p.i.): 86.7 ± 18.7 %ID/g | Biodistribution LNCAP-tumor ([5]; 2 h p.i.): 26.3 ± 5.3 %ID/g | Biodistribution Liver ([5]; 2 h p.i.): 0.95 ± 0.15 %ID/g | Biodistribution Lung ([5]; 2 h p.i.): 0.5 ± 0.04 %ID/g | Biodistribution Muscle ([5]; 2 h p.i.): 0.05 ± 0.02 %ID/g | Biodistribution Prostate ([5]; 2 h p.i.): 0.15 ± 0.04 %ID/g | Biodistribution Spleen ([5]; 2 h p.i.): 0.49 ± 0.07 %ID/g | Biodistribution Thyroid ([5]; 2 h p.i.): 0.18 ± 0.03 %ID/g | Tumor/blood ratio ([5]; 4 h p.i.): 180 ± 61 | Tumor/kidneys ratio ([5]; 4 h p.i.): 0.55 ± 0.01 | Tumor/liver ratio ([5]; 4 h p.i.): 29.6 ± 5.1 | Tumor/muscle ratio ([5]; 4 h p.i.): 297 ± 62 | Biodistribution Blood ([5]; 4 h p.i.): 0.13 ± 0.04 %ID/g | Biodistribution Bone ([5]; 4 h p.i.): 0.13 ± 0.03 %ID/g | Biodistribution Heart ([5]; 4 h p.i.): 0.12 ± 0.03 %ID/g | Biodistribution Intestine ([5]; 4 h p.i.): 0.54 ± 0.10 %ID/g | Biodistribution Kidneys ([5]; 4 h p.i.): 41.3 ± 2.37 %ID/g | Biodistribution LNCAP-tumor ([5]; 4 h p.i.): 22.8 ± 1.5 %ID/g | Biodistribution Liver ([5]; 4 h p.i.): 0.79 ± 0.17 %ID/g | Biodistribution Lung ([5]; 4 h p.i.): 0.12 ± 0.03 %ID/g | Biodistribution Muscle ([5]; 4 h p.i.): 0.08 ± 0.02 %ID/g | Biodistribution Prostate ([5]; 4 h p.i.): 1.12 ± 0.16 %ID/g | Biodistribution Spleen ([5]; 4 h p.i.): 0.61 ± 0.09 %ID/g | Biodistribution Thyroid ([5]; 4 h p.i.): 0.13 ± 0.02 %ID/g | Tumor/blood ratio ([5]; 24 h p.i.): 309 ± 89 | Tumor/kidneys ratio ([5]; 24 h p.i.): 1.0 ± 0.3 and 1.02 ± 0.28 | Tumor/liver ratio ([5]; 24 h p.i.): 40.0 ± 1.1 | Tumor/muscle ratio ([5]; 24 h p.i.): 450 ± 38 | Biodistribution Blood ([5]; 24 h p.i.): 0.05 ± 0.01 %ID/g | Biodistribution Bone ([5]; 24 h p.i.): 0.18 ± 0.02 %ID/g | Biodistribution Heart ([5]; 24 h p.i.): 0.09 ± 0.02 %ID/g | Biodistribution Intestine ([5]; 24 h p.i.): 0.25 ± 0.08 %ID/g | Biodistribution Kidneys ([5]; 24 h p.i.): 15.4 ± 4.1 %ID/g | Biodistribution LNCAP-tumor ([5]; 24 h p.i.): 14.9 ± 1.2 %ID/g | Biodistribution Liver ([5]; 24 h p.i.): 0.37 ± 0.03 %ID/g | Biodistribution Lung ([5]; 24 h p.i.): 0.04 ± 0.01 %ID/g | Biodistribution Muscle ([5]; 24 h p.i.): 0.03 ± 0.01 %ID/g | Biodistribution Prostate ([5]; 24 h p.i.): 0.50 ± 0.01 %ID/g | Biodistribution Spleen ([5]; 24 h p.i.): 0.36 ± 0.08 %ID/g | Biodistribution Thyroid ([5]; 24 h p.i.): 0.05 ± 0.01 %ID/g | In vivo stability (no time-dependent increase in Zr-89 accumulation in bone) ([5]; mice, 24 h or 48 h p.i., biokinetics and small-animal PET): convincing in vivo stability | Visibility of LNCaP tumor xenograft in PET ([6]; 48 h p.i., 10 MBq): still clearly visible; also recorded: remained clearly visible | Radioactivity in the bladder ([6]; mice, 48 h after injection): no detectable radioactivity | Share of renal radioactivity due to specific binding ([6]; mouse, blocking experiment with 2-PMPA): approximately two-thirds
